Experimental data from the NIST ThermoML archive (doi:10.1016/j.fluid.2009.03.017).
± gives the expanded uncertainty stated by the source.

Tests used:
[1] = 298.1 K; 101.33 kPa; Liquid; Vibrating tube method
[2] = refractive index (Na D-line) (dimensionless); details: 293.1 K; 101.33 kPa; Liquid; Standard Abbe refractometry

Structure (SMILES) | mass density [1] [kg/m3] | refractive index [2]
C1COCCO1 [1,4-dioxane] | 1025.9 ± 0.1 | 1.422 ± 0.0007
C=CC(C)CCC=C(C)C (centres undefined) [3,7-dimethyl-1,6-octadiene] | 766.8 ± 0.2 | 1.4416 ± 0.0007
